According to patent US20240409585A1, “MACROCYCLIC IMMUNOMODULATORS” (priority 2021, published 2024):
Numbered stars: 1 amine (or outer) side, 2 acyl side, 3 side chain; on linkers, the order of the positions; unused ones are H or OH. Bridge positions count the residues as written; N and C are the ends. Square brackets hold non-standard residues; d marks the D form. Peptide text beside a SMILES is read from it. * marks the point of attachment. ξ: configuration not given here. Phe(4-CONH2) = NC(=O)c1ccc(C[C@H](N)C(=O)O)cc1; Phe(4-COOH) = N[C@@H](Cc1ccc(C(=O)O)cc1)C(=O)O; X27 = O=C([C@H](Cc1ccc2ncccc2c1)N[*:1])[*:2]; Bip = N[C@@H](Cc1ccc(-c2ccccc2)cc1)C(=O)O; Phe(3-OMe) = COc1cccc(C[C@H](N)C(=O)O)c1; Phe(3-Me) = Cc1cccc(C[C@H](N)C(=O)O)c1; Val(3-OH) = CC(C)(O)[C@H](N)C(=O)O; Cha = N[C@@H](CC1CCCCC1)C(=O)O; Cit = NC(=O)NCCC[C@H](N)C(=O)O; Ile(3ξ) = CCC(C)[C@H](N)C(=O)O; Thr(3ξ) = CC(O)[C@H](N)C(=O)O; Dap(Me) = CNC[C@H](N)C(=O)O; Carboxymethyl = O=C(O)C*; NMeA = CN[C@@H](C)C(=O)O; Orn = NCCC[C@H](N)C(=O)O; dDap = NC[C@@H](N)C(=O)O; Dab = NCC[C@H](N)C(=O)O; Dap = NC[C@H](N)C(=O)O

biological target: T1, PE-labeled human PD-L1-Ig binding to Jurkat cell line over-expressing human PD-1 (Jurkat-PD-1) (Homo sapiens, UniProt Q15116); test: Jurkat-PD-1 Cell Binding High-Content Screening Assay (CBA): Method 1; conditions: Jurkat-hPD-1 cells, PE-labeled PD-L1-Ig 20 nM final; read-out: Jurkat HPDL1 PD1 IC50 (uM) (Method 1)
T1 construct: expressed in transfected cells; host or cells: Jurkat
T1 sequence (Q15116 25-288): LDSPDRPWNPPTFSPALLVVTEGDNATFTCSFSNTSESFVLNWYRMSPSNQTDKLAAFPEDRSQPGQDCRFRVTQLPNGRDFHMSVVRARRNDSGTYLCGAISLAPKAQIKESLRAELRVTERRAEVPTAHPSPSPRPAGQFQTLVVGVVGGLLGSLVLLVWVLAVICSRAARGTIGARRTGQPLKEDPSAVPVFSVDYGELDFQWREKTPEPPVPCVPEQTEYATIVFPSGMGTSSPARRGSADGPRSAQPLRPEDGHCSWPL

SMILES	IC50 [µM]
CC[C@H](C)[C@@H]1NC(=O)[C@H](Cc2ccc(-c3ccccc3)cc2)NC(=O)[C@H](C(C)C)NC(=O)[C@H](Cc2c[nH]c3ccccc23)NC(=O)[C@H](CC(=O)O)NC(=O)[C@H](Cc2ccc(O)cc2)NC(=O)[C@H](CN)NC(=O)CSC[C@@H](C(=O)N[C@@H](C)C(N)=O)NC(=O)[C@H]([C@@H](C)O)NC(=O)[C@H](C(C)C)NC(=O)[C@H](CC2CCCCC2)NC(=O)[C@H](CCCNC(=N)N)NC(=O)[C@@H](CC(C)C)NC(=O)[C@H](C)N(C)C1=O [Compound 1492] ({CH2CO}-[Dap]YDWV[Bip]I[NMeA][dL]R[Cha]VTCA-NH2; thioether N-14)	0.04
CC(C)C[C@@H]1NC(=O)[C@H](CCN)NC(=O)[C@@H](CC(C)C)NC(=O)[C@H](C)N(C)C(=O)[C@H](Cc2cnc[nH]2)NC(=O)[C@H](Cc2ccc(-c3ccccc3)cc2)NC(=O)[C@H](C(C)C)NC(=O)[C@H](Cc2c[nH]c3ccccc23)NC(=O)[C@H](CC(=O)O)NC(=O)[C@H](Cc2ccc(O)cc2)NC(=O)[C@H](CN)NC(=O)CSC[C@@H](C(=O)N[C@@H](C)C(N)=O)NC(=O)[C@H]([C@@H](C)O)NC(=O)[C@H](C(C)C)NC1=O [Compound 1424] ({CH2CO}-[Dap]YDWV[Bip]H[NMeA][dL][Dab]LVTCA-NH2; thioether N-14)	0.05
CCC(C)[C@@H]1NC(=O)[C@H](Cc2ccc(-c3ccccc3)cc2)NC(=O)[C@H](C(C)C)NC(=O)[C@H](Cc2c[nH]c3ccccc23)NC(=O)[C@H](CC(=O)O)NC(=O)[C@H](Cc2ccc(O)cc2)NC(=O)[C@H](Cc2ccc3ncccc3c2)NC(=O)CSC[C@@H](C(=O)N[C@@H](C)C(N)=O)NC(=O)[C@H](C(C)O)NC(=O)[C@H](C(C)C)NC(=O)[C@H](CC2CCCCC2)NC(=O)[C@H](CCN)NC(=O)[C@@H](CC(C)C)NC(=O)[C@H](C)N(C)C1=O (stereo partly drawn) [Compound 2045] ({CH2CO}-[X27]YDWV[Bip][Ile(3ξ)][NMeA][dL][Dab][Cha]V[Thr(3ξ)]CA-NH2; thioether N-14)	0.01
CC(C)C[C@@H]1NC(=O)[C@H](CCCNC(=N)N)NC(=O)[C@@H](CC(C)C)NC(=O)[C@H](C)N(C)C(=O)[C@H](CCCNC(=N)N)NC(=O)[C@H](Cc2ccc(-c3ccccc3)cc2)NC(=O)[C@H](C(C)C)NC(=O)[C@H](Cc2c[nH]c3ccccc23)NC(=O)[C@H](CC(=O)O)NC(=O)[C@H](Cc2ccc(O)cc2)NC(=O)[C@H](Cc2ccccc2)NC(=O)CSC[C@@H](C(=O)NCC(N)=O)NC(=O)[C@H](CO)NC(=O)[C@H](C(C)C)NC1=O [Compound 1017] ({CH2CO}-FYDWV[Bip]R[NMeA][dL]RLVSCG-NH2; thioether N-14)	0.04
CC[C@H](C)[C@@H]1NC(=O)[C@H](Cc2ccc(-c3ccccc3)cc2)NC(=O)[C@H](C(C)C)NC(=O)[C@H](Cc2c[nH]c3ccccc23)NC(=O)[C@H](CC(=O)O)NC(=O)[C@H](Cc2ccc(O)cc2)NC(=O)[C@H](CC(N)=O)NC(=O)CSC[C@@H](C(=O)N[C@@H](C)C(N)=O)NC(=O)[C@H]([C@@H](C)O)NC(=O)[C@H](C(C)C)NC(=O)[C@H](CC(C)C)NC(=O)[C@H](CCCNC(=N)N)NC(=O)[C@@H](CC(C)C)NC(=O)[C@H](C)N(C)C1=O [Compound 1490] ({CH2CO}-NYDWV[Bip]I[NMeA][dL]RLVTCA-NH2; thioether N-14)	0.07
Cc1cccc(C[C@@H]2NC(=O)[C@H](CC(=O)O)NC(=O)[C@H](Cc3ccc(O)cc3)NC(=O)[C@H](CC(N)=O)NC(=O)CSC[C@@H](C(=O)N[C@@H](C)C(N)=O)NC(=O)[C@H]([C@@H](C)O)NC(=O)[C@H](C(C)C)NC(=O)[C@H](CC(C)C)NC(=O)[C@H](CCN)NC(=O)[C@@H](CC(C)C)NC(=O)[C@H](C)N(C)C(=O)[C@H](CCCNC(N)=O)NC(=O)[C@H](Cc3ccc(-c4ccccc4)cc3)NC(=O)[C@H](C(C)C)NC2=O)c1 [Compound 1230] ({CH2CO}-NYD[Phe(3-Me)]V[Bip][Cit][NMeA][dL][Dab]LVTCA-NH2; thioether N-14)	0.01
CC[C@H](C)[C@@H]1NC(=O)[C@H](Cc2ccc(-c3ccccc3)cc2)NC(=O)[C@H](C(C)C)NC(=O)[C@H](Cc2c[nH]c3ccccc23)NC(=O)[C@H](CC(=O)O)NC(=O)[C@H](Cc2ccc(C(=O)O)cc2)NC(=O)[C@H](CN)NC(=O)CSC[C@@H](C(=O)N[C@@H](C)C(N)=O)NC(=O)[C@H]([C@@H](C)O)NC(=O)[C@H](C(C)C)NC(=O)[C@H](CC(C)C)NC(=O)[C@H](CCN)NC(=O)[C@@H](CC(C)C)NC(=O)[C@H](C)N(C)C1=O [Compound 1412] ({CH2CO}-[Dap][Phe(4-COOH)]DWV[Bip]I[NMeA][dL][Dab]LVTCA-NH2; thioether N-14)	0.05

Now from value to molecule:

IC50 [µM]	SMILES
0.02	CC(C)C[C@@H]1NC(=O)[C@H](Cc2c[nH]c3ccccc23)NC(=O)[C@H](CC(=O)O)NC(=O)[C@H](Cc2ccc(C(N)=O)cc2)NC(=O)[C@H](Cc2ccccc2)NC(=O)CSC[C@@H](C(=O)N[C@@H](C)C(N)=O)NC(=O)[C@H](CO)NC(=O)[C@H](C(C)C)NC(=O)[C@H](CC(C)C)NC(=O)[C@H](CC(N)=O)NC(=O)[C@@H](C)NC(=O)[C@H](C)N(C)C(=O)[C@H](C(C)C)NC(=O)[C@H](Cc2ccc(-c3ccccc3)cc2)NC1=O [Compound 1740] ({CH2CO}-F[Phe(4-CONH2)]DWL[Bip]V[NMeA][dA]NLVSCA-NH2; thioether N-14)
0.02	COc1cccc(C[C@@H]2NC(=O)[C@H](CC(=O)O)NC(=O)[C@H](Cc3ccc(O)cc3)NC(=O)[C@H](Cc3ccccc3)NC(=O)CSC[C@@H](C(=O)NCC(N)=O)NC(=O)[C@H](CO)NC(=O)[C@H](C(C)C)NC(=O)[C@H](CC(C)C)NC(=O)[C@H](CC(N)=O)NC(=O)[C@@H](CC(C)C)NC(=O)[C@H](C)N(C)C(=O)[C@H](C(C)C)NC(=O)[C@H](Cc3ccc(-c4ccccc4)cc3)NC(=O)[C@H](CC(C)C)NC2=O)c1 [Compound 1516] ({CH2CO}-FYD[Phe(3-OMe)]L[Bip]V[NMeA][dL]NLVSCG-NH2; thioether N-14)
0.18	CC(C)C[C@@H]1NC(=O)[C@H](CCN)NC(=O)[C@@H](CC(C)C)NC(=O)[C@H](C)N(C)C(=O)[C@H](CCCNC(=N)N)NC(=O)[C@H](Cc2ccc(-c3ccccc3)cc2)NC(=O)[C@H](C(C)C)NC(=O)[C@H](Cc2c[nH]c3ccccc23)NC(=O)[C@H](CC(=O)O)NC(=O)[C@H](Cc2cnc[nH]2)NC(=O)[C@H](Cc2ccccc2)NC(=O)CSC[C@@H](C(=O)N[C@@H](C)C(N)=O)NC(=O)[C@H]([C@@H](C)O)NC(=O)[C@H](C(C)C)NC1=O [Compound 1130] ({CH2CO}-FHDWV[Bip]R[NMeA][dL][Dab]LVTCA-NH2; thioether N-14)
0.28	CC(C)C[C@@H]1NC(=O)[C@H](CCCN)NC(=O)[C@@H](CC(C)C)NC(=O)[C@H](C)N(C)C(=O)[C@H](CCCNC(=N)N)NC(=O)[C@H](Cc2ccc(-c3ccccc3)cc2)NC(=O)[C@H](C(C)C)NC(=O)[C@H](Cc2c[nH]c3ccccc23)NC(=O)[C@H](CC(=O)O)NC(=O)[C@H](Cc2cnc[nH]2)NC(=O)[C@H](CC(N)=O)NC(=O)CSC[C@@H](C(=O)N[C@@H](C)C(N)=O)NC(=O)[C@H]([C@@H](C)O)NC(=O)[C@H](C(C)C)NC1=O [Compound 1131] ({CH2CO}-NHDWV[Bip]R[NMeA][dL][Orn]LVTCA-NH2; thioether N-14)
0.1	CC(C)C[C@@H]1NC(=O)[C@H](Cc2c[nH]c3ccccc23)NC(=O)[C@H](CC(=O)O)NC(=O)[C@H](Cc2ccc(O)cc2)NC(=O)[C@H](Cc2ccccc2)NC(=O)CSC[C@@H](C(=O)N[C@@H](C)C(N)=O)NC(=O)[C@H](CO)NC(=O)[C@H](C(C)C)NC(=O)[C@H](CC(C)C)NC(=O)[C@H](CC(N)=O)NC(=O)[C@@H](CN)NC(=O)[C@H](C)N(C)C(=O)[C@H](C(C)C)NC(=O)[C@H](Cc2ccc(-c3ccccc3)cc2)NC1=O [Compound 1787] ({CH2CO}-FYDWL[Bip]V[NMeA][dDap]NLVSCA-NH2; thioether N-14)
0.06	CC(C)C[C@@H]1NC(=O)[C@H](CCN)NC(=O)[C@@H](CC(C)C)NC(=O)[C@H](C)N(C)C(=O)[C@H](Cc2cnc[nH]2)NC(=O)[C@H](Cc2ccc(-c3ccccc3)cc2)NC(=O)[C@H](C(C)C)NC(=O)[C@H](Cc2c[nH]c3ccccc23)NC(=O)[C@H](CC(=O)O)NC(=O)[C@H](Cc2ccc(C(=O)O)cc2)NC(=O)[C@H](CN)NC(=O)CSC[C@@H](C(=O)N[C@@H](C)C(N)=O)NC(=O)[C@H]([C@@H](C)O)NC(=O)[C@H](C(C)C)NC1=O [Compound 1439] ({CH2CO}-[Dap][Phe(4-COOH)]DWV[Bip]H[NMeA][dL][Dab]LVTCA-NH2; thioether N-14)
0.03	CCC(C)[C@@H]1NC(=O)[C@H](Cc2ccc(-c3ccccc3)cc2)NC(=O)[C@H](CC(C)C)NC(=O)[C@H](Cc2c[nH]c3ccccc23)NC(=O)[C@H](CC(=O)O)NC(=O)[C@H](Cc2ccc(C(=O)O)cc2)NC(=O)[C@H](Cc2ccc(OCC(=O)O)cc2)NC(=O)CSC[C@@H](C(=O)N[C@@H](C)C(N)=O)NC(=O)[C@H](CO)NC(=O)[C@H](C(C)C)NC(=O)[C@H](CC2CCCCC2)NC(=O)[C@H](CNC)NC(=O)[C@@H](CC(C)C)NC(=O)[C@H](C)N(C)C1=O (stereo partly drawn) [Compound 2068] ({CH2CO}-Y(Carboxymethyl)[Phe(4-COOH)]DWL[Bip][Ile(3ξ)][NMeA][dL][Dap(Me)][Cha]VSCA-NH2; thioether N-14)
0.12	Cc1cccc(C[C@@H]2NC(=O)[C@H](CC(=O)O)NC(=O)[C@H](Cc3ccc(O)cc3)NC(=O)[C@H](CC(N)=O)NC(=O)CSC[C@@H](C(=O)N[C@H](C)C(N)=O)NC(=O)[C@H]([C@@H](C)O)NC(=O)[C@H](C(C)(C)O)NC(=O)[C@H](CC3CCCCC3)NC(=O)[C@H](CCN)NC(=O)[C@@H](CC(C)C)NC(=O)[C@H](C)N(C)C(=O)[C@H](CCCNC(N)=O)NC(=O)[C@H](Cc3ccc(-c4ccccc4)cc3)NC(=O)[C@H](C(C)(C)O)NC2=O)c1 [Compound 1706] ({CH2CO}-NYD[Phe(3-Me)][Val(3-OH)][Bip][Cit][NMeA][dL][Dab][Cha][Val(3-OH)]TC[dA]-NH2; thioether N-14)
